The source made the active and inactive calls. No cut-off for these calls is given here.
Assays:
BMDM [1] = test: Inhibition of RANKL-induced osteoclast differentiation in ICR mouse bone marrow macrophage assessed as reduction in multinucleated TRAP+ cells at 10 uM preincubated for 3 days for RANKL stimulation followed by compound addition and measured after 1 day by TRAP staining based microscopy; format: functional, cell-based
[2] = Inhibition of RANKL-induced osteoclast differentiation in ICR mouse bone marrow macrophage assessed as reduction in multinucleated TRAP+ cells preincubated for 3 days for RANKL stimulation followed by compound addition and measured after 1 day by TRAP staining based microscopy; format: functional; details: BMDM, read-out: ED50 (the source's name)
BMDM [3] = test: Cytotoxicity against ICR mouse bone marrow macrophage assessed as reduction in cell viability at 10 uM incubated for 3 days by WST-8 assay; format: cell-based; details: 72 h
BMDM [4] = test: Cytotoxicity against ICR mouse bone marrow macrophage assessed as reduction in cell viability at 1 to 10 uM incubated for 3 days by WST-8 assay; format: cell-based; details: 72 h

SMILES | inhibition (BMDM [1]) | EC50 [2] [nM] | Activity (BMDM [3]) | Activity (BMDM [4])
COC(=O)CC[C@]1(C)[C@H]2Cc3c(c(C)c4c(c3OC)C(=O)OC4)O[C@@]2(C)C[C@@H](O)[C@H]1C(C)(C)O | inactive | – | – | –
C/C(=C\Cc1c(O)c(C)c2c(c1O)C(=O)OC2)CC/C=C(\C)CCCC(C)(C)O | inactive | – | – | –
Cc1c2c(c(O)c3c1O[C@@]1(C)CC[C@H]4C(C)(C)C(=O)CC[C@]4(C)[C@H]1C3)C(=O)OC2 | – | 1900 to 2800 | Toxic | –
COc1c2c(c(C)c3c1C(=O)OC3)O[C@@]1(C)CC[C@@]3(O)C(C)(C)C(=O)CC[C@]3(C)[C@H]1C2 | – | 1900 to 2800 | – | Non-Toxic
COc1c2c(c(C)c3c1C(=O)OC3)O[C@@]1(C)CC[C@H]3C(C)(C)[C@@H](O)CC[C@]3(C)[C@H]1C2 | – | 1900 to 2800 | – | Non-Toxic
C=C(C)[C@@H]1CC[C@]2(C)Oc3c(C)c4c(c(OC)c3C[C@@H]2[C@@]1(C)CCC(=O)OC)C(=O)OC4 | inactive | – | – | –
C=C(C)[C@@H]1[C@H](O)C[C@]2(C)Oc3c(C)c4c(c(OC)c3C[C@@H]2[C@@]1(C)CCC(=O)OC)C(=O)OC4 | inactive | – | – | –
COc1c2c(c(C)c3c1C(=O)OC3)O[C@@]1(C)C[C@@H](O)[C@H]3C(C)(C)C(=O)CC[C@]3(C)[C@H]1C2 | – | 1900 to 2800 | – | Non-Toxic
COc1c2c(c(C)c3c1C(=O)OC3)O[C@@]1(C)CC[C@H]3C(C)(C)OC(=O)CC[C@]3(C)[C@H]1C2 | – | 1900 to 2800 | – | Non-Toxic
COC(=O)CC[C@]1(C)[C@H]2Cc3c(c(C)c4c(c3OC)C(=O)OC4)O[C@@]2(C)CC[C@H]1C(C)(C)O | – | 1900 to 2800 | – | Non-Toxic
CC(C)=CCC/C(C)=C/CC/C(C)=C/Cc1c(O)c(C)c2c(c1O)C(=O)OC2 | inactive | – | – | –
COc1c2c(c(C)c3c1C(=O)OC3)O[C@@]1(C)CC[C@@H](C(C)(C)O)[C@](C)(CCC(=O)O)[C@H]1C2 | inactive | – | – | –

Source: ChEMBL document CHEMBL4414647, “Austalides, Osteoclast Differentiation Inhibitors from a Marine-Derived Strain of the Fungus Penicillium rudallense” (J Nat Prod, 2019)
